Source: patent publication US20250163032A1, “NOVEL MOLECULES AS INHIBITORS OF DNA DAMAGE REPAIR PATHWAY” (VRise Therapeutics, Inc., priority 2023, published 2025)

These molecules were tested against USP1/UAF1 (Homo sapiens, UniProt O94782) (assay: USP1/UAF 1 assay (ubiquitin-rhodamine110 fluorometric deubiquitinase assay)). Conditions: 1 nM USP1/UAF1, 150 nM Ub-Rho; read-out: Biochemical assay IC50.
Chain of USP1/UAF1 (O94782 whole entry): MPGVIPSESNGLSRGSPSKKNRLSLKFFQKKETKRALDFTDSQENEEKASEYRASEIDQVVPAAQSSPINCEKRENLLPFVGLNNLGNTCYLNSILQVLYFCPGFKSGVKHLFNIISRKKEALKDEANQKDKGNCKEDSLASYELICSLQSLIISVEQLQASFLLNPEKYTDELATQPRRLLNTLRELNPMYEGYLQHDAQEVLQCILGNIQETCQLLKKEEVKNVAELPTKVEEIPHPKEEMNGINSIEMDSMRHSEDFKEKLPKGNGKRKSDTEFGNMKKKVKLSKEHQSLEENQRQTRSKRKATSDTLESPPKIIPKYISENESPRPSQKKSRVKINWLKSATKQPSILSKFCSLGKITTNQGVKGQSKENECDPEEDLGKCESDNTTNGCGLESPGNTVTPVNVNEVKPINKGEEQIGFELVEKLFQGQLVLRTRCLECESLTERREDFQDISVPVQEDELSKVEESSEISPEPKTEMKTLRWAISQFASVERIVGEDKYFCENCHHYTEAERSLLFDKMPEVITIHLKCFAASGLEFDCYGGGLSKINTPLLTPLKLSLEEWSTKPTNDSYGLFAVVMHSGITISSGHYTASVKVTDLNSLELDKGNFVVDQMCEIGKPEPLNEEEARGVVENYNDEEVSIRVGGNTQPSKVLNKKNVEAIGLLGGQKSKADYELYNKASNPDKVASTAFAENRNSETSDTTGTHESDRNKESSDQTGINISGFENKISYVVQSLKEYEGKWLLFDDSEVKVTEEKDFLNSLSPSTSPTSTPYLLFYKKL
Chain of USP1/UAF1 (Q8TAF3 whole entry partner): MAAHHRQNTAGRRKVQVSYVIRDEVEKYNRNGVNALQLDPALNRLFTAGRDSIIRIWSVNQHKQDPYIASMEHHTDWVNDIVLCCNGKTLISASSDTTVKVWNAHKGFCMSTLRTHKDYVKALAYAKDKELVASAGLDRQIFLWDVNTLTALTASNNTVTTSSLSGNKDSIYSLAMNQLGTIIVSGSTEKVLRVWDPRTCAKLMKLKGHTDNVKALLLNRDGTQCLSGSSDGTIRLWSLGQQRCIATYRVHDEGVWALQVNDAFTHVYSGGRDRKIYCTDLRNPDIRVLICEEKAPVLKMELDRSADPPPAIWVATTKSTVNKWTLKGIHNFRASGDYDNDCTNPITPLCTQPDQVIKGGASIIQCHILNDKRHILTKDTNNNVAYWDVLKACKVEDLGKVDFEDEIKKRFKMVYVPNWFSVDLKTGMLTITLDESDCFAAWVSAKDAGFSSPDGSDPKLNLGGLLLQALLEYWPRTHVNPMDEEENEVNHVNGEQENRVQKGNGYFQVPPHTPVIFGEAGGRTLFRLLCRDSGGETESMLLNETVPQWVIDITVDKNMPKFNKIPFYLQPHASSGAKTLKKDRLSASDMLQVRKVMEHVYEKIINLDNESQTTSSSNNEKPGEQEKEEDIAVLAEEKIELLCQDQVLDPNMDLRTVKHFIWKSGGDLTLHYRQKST
Format: biochemical
Experimental: Test-1: USP1/UAF 1 Assay:
Deubiquitinase activity of USP1/UAF1 was monitored in a fluorometric assay using ubiquitin-rhodamine110 as substrate. Briefly, enzymatic reactions were conducted in an assay buffer composed of 50 mM HEPES, pH 7.8, 0.5 mM EDTA, 100 mM NaCl, 1 mM TCEP, 0.1 mg/mL BSA, and 0.01% Tween-20 that contained 1 nM USP1/UAF1. Compounds were tested at desired concentrations. The plates were incubated for 15 min to attain equilibrium, and then the enzymatic reaction was initiated by dispensing 150 nM Ub-Rho solution. Fluorescence measurement was performed in a high throughput CCD imager, where kinetic measurements of rhodamine fluorescence were acquired using a 480 nm excitation/540 nm emission filter set. The change in fluorescence intensity over a 5-minute reaction period (typically associated with less than 10% substrate conversion) was normalized against no-inhibitor and no-enzyme controls and the resulting percent inhibition data were fitted to a sigmoidal dose response using a four-parameter Hill equation. Data was be analysed and percent inhibition and/or IC50 for each test compound is calculated accordingly.
In the case of `CC(C)c1ccccc1-c1nc2c(c(NCc3ccc(-c4nc(C(F)(F)F)cn4C)cc3)c1C#N)CCC2` [Example 20, 2-(2-isopropylphenyl)-4-((4-(1-methyl-4-(trifluoromethyl)-1H-imidazol-2-yl)benzyl)amino)-6,7-dihydro-5H-cyclopenta[b]pyridine-3-carbonitrile], the IC50 is reported as 100 to 1000 nM. `CC(C)c1ccccc1-c1nc(NCc2ccc(-c3nc(C(F)(F)F)cn3C)cc2)c2[nH]cnc2n1` [Example 15, 2-(2-isopropylphenyl)-N-(4-(1-methyl-4-(trifluoromethyl)-1H-imidazo-2-yl)benzyl)-7H-purin-6-amine] was tested, and the IC50 was < 50 nM. `CC(C)c1ccccc1-c1cc2nccn2c(NCc2ccc(-c3nc(C(F)(F)F)cn3C)cc2)n1` [Example 7, 7-(2-isopropylphenyl)-N-(4-(1-methyl-4-(trifluoromethyl)-1H-imidazol-2-yl)benzyl)imidazo[1,2-c]pyrimidin-5-amine] was tested, and the IC50 was 100 to 1000 nM.

Same assay, conditions: @1 μM
`CC(C)c1ccccc1-c1nc(NCc2ccc(-c3nc(C(F)(F)F)cn3C)cc2)c2ncn(C3CCCCO3)c2n1` (centres unmarked) [Example 18, 2-(2-isopropylphenyl)-N-(4-(1-methyl-4-(trifluoromethyl)-1H-imidazol-2-yl)benzyl)-9-(tetrahydro-2H-pyran-2-yl)-9H-purin-6-amine] was tested, and the “Biochemical assay % inhibition @1 μM” value was “B+++”.

Same assay, conditions: read-out: Biochemical assay % inhibition @1 μM
`CCOc1ccc(-c2nc3c(c(NCc4ccc(-c5nc(C(F)(F)F)cn5C)cc4)n2)CCC3)cn1` [Example 62, 2-(6-ethoxypyridin-3-yl)-N-(4-(1-methyl-4-(trifluoromethyl)-1H-imidazol-2-yl)benzyl)-6,7-dihydro-5H-cyclopenta[d]pyrimidin-4-amine] gave an inhibition at 1 µM of 50 to 75%. Work on `Cn1cc(C(F)(F)F)nc1-c1ccc(CNc2nc(-c3cc(Cl)cc(Cl)c3)nc3c2CCC3)cc1` [Example 73, 2-(3,5-dichlorophenyl)-N-(4-(1-methyl-4-(trifluoromethyl)-1H-imidazol-2-yl)benzyl)-6,7-dihydro-5H-cyclopenta[d]pyrimidin-4-amine] yielded an inhibition at 1 µM of 50 to 75%. With `Cn1cc(C(F)(F)F)nc1-c1ccc(CNc2nc(-c3ccc(Cl)cc3Cl)nc3nc[nH]c23)cc1` [Example 42, 2-(2,4-dichlorophenyl)-N-(4-(1-methyl-4-(trifluoromethyl)-1H-imidazol-2-yl)benzyl)-7H-purin-6-amine] the inhibition at 1 µM was 50 to 75%. `Cn1cc(C(F)(F)F)nc1-c1ccc(CNc2nc(-c3ccccc3C(F)(F)F)nc3c2CCC3)cc1` [Example 70, N-(4-(1-methyl-4-(trifluoromethyl)-1H-imidazol-2-yl)benzyl)-2-(2-(trifluoromethyl)phenyl)-6,7-dihydro-5H-cyclopenta[d]pyrimidin-4-amine] was tested, and the inhibition at 1 µM was > 75%. In the case of `Cn1cc(C(F)(F)F)nc1-c1ccc(CNc2nc(-c3cccc(C(N)=O)c3)nc3c2CCC3)cc1` [Example 72, 3-(4-((4-(1-methyl-4-(trifluoromethyl)-1H-imidazol-2-yl)benzyl)amino)-6,7-dihydro-5H-cyclopenta[d]pyrimidin-2-yl)benzamide], the inhibition at 1 µM is reported as 50 to 75%. Work on `COc1ccc(-c2nc3c(c(NCc4ccc(-c5nc(C(F)(F)F)cn5C)cc4)n2)CCC3)c(OC)n1` [Example 65, 2-(2,6-dimethoxypyridin-3-yl)-N-(4-(1-methyl-4-(trifluoromethyl)-1H-imidazol-2-yl)benzyl)-6,7-dihydro-5H-cyclopenta[d]pyrimidin-4-amine] yielded an inhibition at 1 µM of 50 to 75%. `Cn1cc(C(F)(F)F)nc1-c1ccc(CNc2nc(-c3cc(C(F)(F)F)ccc3F)nc3nc[nH]c23)cc1` [Example 44, 2-(2-fluoro-5-(trifluoromethyl)phenyl)-N-(4-(1-methyl-4-(trifluoromethyl)-1H-imidazol-2-yl)benzyl)-7H-purin-6-amine] gave an inhibition at 1 µM of 50 to 75%. Molecule `COc1ccc(-c2nc(NCc3ccc(-c4nc(C(F)(F)F)cn4C)cc3)c3[nH]cnc3n2)cc1OC` [Example 51, 2-(3,4-dimethoxyphenyl)-N-(4-(1-methyl-4-(trifluoromethyl)-1H-imidazol-2-yl)benzyl)-7H-purin-6-amine] has an inhibition at 1 µM of 50 to 75%. Work on `Cn1cc(C(F)(F)F)nc1-c1ccc(CNc2nc(-c3ccc(C#N)cc3)nc3c2CCC3)cc1` [Example 63, 4-(4-((4-(1-methyl-4-(trifluoromethyl)-1H-imidazol-2-yl)benzyl)amino)-6,7-dihydro-5H-cyclopenta[d]pyrimidin-2-yl)benzonitrile] yielded an inhibition at 1 µM of 50 to 75%. Work on `Cc1cc(C)cc(-c2nc(NCc3ccc(-c4nc(C(F)(F)F)cn4C)cc3)c3[nH]cnc3n2)c1` [Example 50, 2-(3,5-dimethylphenyl)-N-(4-(1-methyl-4-(trifluoromethyl)-1H-imidazol-2-yl)benzyl)-7H-purin-6-amine] yielded an inhibition at 1 µM of 50 to 75%. With `Cn1cc(C(F)(F)F)nc1-c1ccc(CNc2nc(Cl)nc3c2ncn3C2CCCCO2)cc1` (centres unmarked) [Example 17, 2-chloro-N-(4-(1-methyl-4-(trifluoromethyl)-1H-imidazol-2-yl)benzyl)-9-(tetrahydro-2H-pyran-2-yl)-9H-purin-6-amine] the inhibition at 1 µM was > 75%. `Cn1cc(C(F)(F)F)nc1-c1ccc(CNc2nc(-c3cccc(F)c3C(F)(F)F)nc3nc[nH]c23)cc1` [Example 54, 2-(3-fluoro-2-(trifluoromethyl)phenyl)-N-(4-(1-methyl-4-(trifluoromethyl)-1H-imidazol-2-yl)benzyl)-7H-purin-6-amine] showed an inhibition at 1 µM of 50 to 75%. Molecule `Cn1cc(C(F)(F)F)nc1-c1ccc(CNc2nc(-c3ccc(OC(F)(F)F)cc3)nc3nc[nH]c23)cc1` [Example 47, N-(4-(1-methyl-4-(trifluoromethyl)-1H-imidazol-2-yl)benzyl)-2-(4-(trifluoromethoxy)phenyl)-7H-purin-6-amine] has an inhibition at 1 µM of 50 to 75%. Work on `Cn1cc(C(F)(F)F)nc1-c1ccc(CNc2nc(-c3cccc(C(N)=O)c3)nc3nc[nH]c23)cc1` [Example 55, 3-(6-((4-(1-methyl-4-(trifluoromethyl)-1H-imidazol-2-yl)benzyl)amino)-7H-purin-2-yl)benzamide] yielded an inhibition at 1 µM of 50 to 75%. `COc1cc(-c2nc(NCc3ccc(-c4nc(C(F)(F)F)cn4C)cc3)c3[nH]cnc3n2)ccc1F` [Example 52, 2-(4-fluoro-3-methoxyphenyl)-N-(4-(1-methyl-4-(trifluoromethyl)-1H-imidazol-2-yl)benzyl)-7H-purin-6-amine] showed an inhibition at 1 µM of 50 to 75%. Molecule `Cn1cc(C(F)(F)F)nc1-c1ccc(CNc2nc(-c3cc(Cl)cc(Cl)c3)nc3nc[nH]c23)cc1` [Example 39, 2-(3,5-dichlorophenyl)-N-(4-(1-methyl-4-(trifluoromethyl)-1H-imidazol-2-yl)benzyl)-7H-purin-6-amine] has an inhibition at 1 µM of 50 to 75%. `Cn1cc(C(F)(F)F)nc1-c1ccc(CNc2nc(-c3ccc(F)c(C#N)c3)nc3c2CCC3)cc1` [Example 60, 2-fluoro-5-(4-((4-(1-methyl-4-(trifluoromethyl)-1H-imidazol-2-yl)benzyl)amino)-6,7-dihydro-5H-cyclopenta[d]pyrimidin-2-yl)benzonitrile] gave an inhibition at 1 µM of 50 to 75%. `Cn1cc(C(F)(F)F)nc1-c1ccc(CNc2nc(-c3ccc(C(F)(F)F)cc3)nc3c2CCC3)cc1` [Example 71, N-(4-(1-methyl-4-(trifluoromethyl)-1H-imidazol-2-yl)benzyl)-2-(4-(trifluoromethyl)phenyl)-6,7-dihydro-5H-cyclopenta[d]pyrimidin-4-amine] was tested, and the inhibition at 1 µM was 50 to 75%. For `Cc1cccc(-c2nc(NCc3ccc(-c4nc(C(F)(F)F)cn4C)cc3)c3[nH]cnc3n2)c1Cl` [Example 38, 2-(2-chloro-3-methylphenyl)-N-(4-(1-methyl-4-(trifluoromethyl)-1H-imidazol-2-yl)benzyl)-7H-purin-6-amine], the inhibition at 1 µM was 50 to 75%. Work on `Cn1cc(C(F)(F)F)nc1-c1ccc(CNc2nc(-c3cccc(Cl)c3F)nc3c2CCC3)cc1` [Example 67, 2-(3-chloro-2-fluorophenyl)-N-(4-(1-methyl-4-(trifluoromethyl)-1H-imidazol-2-yl)benzyl)-6,7-dihydro-5H-cyclopenta[d]pyrimidin-4-amine] yielded an inhibition at 1 µM of 50 to 75%. For `COc1ccc(-c2nc(NCc3ccc(-c4nc(C(F)(F)F)cn4C)cc3)c3[nH]cnc3n2)c(OC)c1` [Example 53, 2-(2,4-dimethoxyphenyl)-N-(4-(1-methyl-4-(trifluoromethyl)-1H-imidazol-2-yl)benzyl)-7H-purin-6-amine], the inhibition at 1 µM was 50 to 75%.

Same assay, conditions: read-out: Biochemical assay % inhibition @10 μM
With `COc1ccncc1-c1nc(NCc2ccc(-c3nc(C(F)(F)F)cn3C)cc2)c2[nH]cnc2n1` [Example 34, 2-(4-methoxypyridin-3-yl)-N-(4-(1-methyl-4-(trifluoromethyl)-1H-imidazol-2-yl)benzyl)-7H-purin-6-amine] the inhibition at 10 µM was > 75%. Work on `Cn1cc(C(F)(F)F)nc1-c1ccc(CNc2nc(N3CCOCC3)nc3nc[nH]c23)cc1` [Example 36, N-(4-(1-methyl-4-(trifluoromethyl)-1H-imidazol-2-yl)benzyl)-2-morpholino-7H-purin-6-amine] yielded an inhibition at 10 µM of 50 to 75%. For `COc1cccc(F)c1-c1nc(NCc2ccc(-c3nc(C(F)(F)F)cn3C)cc2)c2[nH]cnc2n1` [Example 30, 2-(2-fluoro-6-methoxyphenyl)-N-(4-(1-methyl-4-(trifluoromethyl)-1H-imidazol-2-yl)benzyl)-7H-purin-6-amine], the inhibition at 10 µM was > 75%. In the case of `COc1ncnc(C2CC2)c1-c1nc(NCc2ccc(-c3nc(C(F)(F)F)cn3C)cc2)c2ncn(C)c2n1` [Example 37, 2-(4-cyclopropyl-6-methoxypyrimidin-5-yl)-9-methyl-N-(4-(1-methyl-4-(trifluoromethyl)-1H-imidazol-2-yl)benzyl)-9H-purin-6-amine], the inhibition at 10 µM is reported as > 75%.
